Structures can show the parent of a compound that is named as a salt.
molecular target: T1, human Nav1.8 (Homo sapiens, UniProt Q9Y5Y9); experiment: Membrane potential increase-inhibitory action on TTX-resistant Na channels in cells expressing human Nav1.8 gene (deltamethrin stimulation); type: cell-based; conditions: not given
T1 construct: expressed in transfected cells
Protocol: A cell line expressing human Nav1.8 gene was used to evaluate the pharmacological effects of compounds of the invention.
1. A membrane potential-sensitive dye containing TTX (final concentration: 0.25 μM) was added to cells expressing human Nav1.8, prior to incubation at 37° C. for 30-60 minutes. 2. The test compound was added to the cells, and the mixture was stationed for 15-30 minutes at room temperature while shielded from light. 3. Deltamethrin (final concentration: 50 μM), a Nav1.8 channel stimulant, was added, and the change in fluorescence intensity due to increased membrane potential was measured.
The Nav1.8 channel inhibition of the test compound was determined by the following equation.

T1 sequence (Q9Y5Y9 whole entry): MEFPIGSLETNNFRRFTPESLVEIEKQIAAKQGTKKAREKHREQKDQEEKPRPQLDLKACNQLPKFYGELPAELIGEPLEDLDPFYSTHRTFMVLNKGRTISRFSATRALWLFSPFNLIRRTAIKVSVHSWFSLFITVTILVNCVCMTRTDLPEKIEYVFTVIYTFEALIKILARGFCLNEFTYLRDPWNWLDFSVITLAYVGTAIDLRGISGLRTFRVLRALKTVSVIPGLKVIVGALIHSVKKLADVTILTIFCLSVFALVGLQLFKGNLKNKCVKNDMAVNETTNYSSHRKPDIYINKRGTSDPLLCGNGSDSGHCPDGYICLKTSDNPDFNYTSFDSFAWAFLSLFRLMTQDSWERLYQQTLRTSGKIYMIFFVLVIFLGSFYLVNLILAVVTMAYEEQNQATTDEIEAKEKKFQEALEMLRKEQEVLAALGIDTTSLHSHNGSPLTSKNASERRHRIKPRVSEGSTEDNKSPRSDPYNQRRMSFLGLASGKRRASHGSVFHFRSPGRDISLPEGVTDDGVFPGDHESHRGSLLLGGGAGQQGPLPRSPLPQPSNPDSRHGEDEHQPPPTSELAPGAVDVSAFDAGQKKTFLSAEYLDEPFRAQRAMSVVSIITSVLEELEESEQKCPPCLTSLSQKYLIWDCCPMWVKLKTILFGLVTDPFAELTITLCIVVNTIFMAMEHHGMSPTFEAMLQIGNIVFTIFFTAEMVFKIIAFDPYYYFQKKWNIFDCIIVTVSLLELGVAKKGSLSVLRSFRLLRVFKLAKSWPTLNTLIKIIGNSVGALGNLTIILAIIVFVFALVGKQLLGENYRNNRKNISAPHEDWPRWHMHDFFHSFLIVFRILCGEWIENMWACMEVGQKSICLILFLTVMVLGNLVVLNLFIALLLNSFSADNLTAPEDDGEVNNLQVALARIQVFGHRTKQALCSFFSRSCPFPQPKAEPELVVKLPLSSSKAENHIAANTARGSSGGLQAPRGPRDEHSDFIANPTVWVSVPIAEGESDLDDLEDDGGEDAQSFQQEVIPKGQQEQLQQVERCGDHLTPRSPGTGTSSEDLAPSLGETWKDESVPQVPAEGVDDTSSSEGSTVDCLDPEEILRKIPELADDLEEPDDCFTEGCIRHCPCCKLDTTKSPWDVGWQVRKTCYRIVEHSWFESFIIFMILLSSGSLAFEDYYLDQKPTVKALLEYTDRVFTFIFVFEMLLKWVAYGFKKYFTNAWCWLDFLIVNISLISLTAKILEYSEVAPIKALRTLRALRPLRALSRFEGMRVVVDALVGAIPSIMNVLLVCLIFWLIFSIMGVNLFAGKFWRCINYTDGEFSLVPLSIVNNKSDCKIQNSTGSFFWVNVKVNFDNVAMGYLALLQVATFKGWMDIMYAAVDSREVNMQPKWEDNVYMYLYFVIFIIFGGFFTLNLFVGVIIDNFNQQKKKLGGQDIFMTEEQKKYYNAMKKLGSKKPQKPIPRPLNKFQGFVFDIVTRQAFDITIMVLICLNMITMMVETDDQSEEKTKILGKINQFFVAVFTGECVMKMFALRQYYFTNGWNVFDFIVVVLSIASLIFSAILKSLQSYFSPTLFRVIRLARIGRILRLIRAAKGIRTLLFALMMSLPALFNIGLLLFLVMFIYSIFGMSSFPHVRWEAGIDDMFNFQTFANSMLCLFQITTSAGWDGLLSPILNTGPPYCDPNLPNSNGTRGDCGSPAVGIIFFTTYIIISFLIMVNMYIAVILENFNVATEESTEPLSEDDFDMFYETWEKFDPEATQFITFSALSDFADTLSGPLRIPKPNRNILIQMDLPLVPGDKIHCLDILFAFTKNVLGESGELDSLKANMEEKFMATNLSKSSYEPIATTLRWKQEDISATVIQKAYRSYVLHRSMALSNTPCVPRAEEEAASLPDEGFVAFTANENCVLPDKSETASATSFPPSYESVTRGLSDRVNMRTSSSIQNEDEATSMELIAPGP

Point of comparison: `Cc1ccccc1OC[C@@H]1C[C@H]2CC[C@@H](C1)N2CCCCn1nc2ccccn2c1=O` [Example 153, (Exo)-2-{4-[3-(2-methylphenoxymethyl)-8-azabicyclo[3.2.1]oct-8-yl]butyl}-2H-[1,2,4]triazolo[4,3-a]pyridin-3-one oxalate], IC50 3.7 µM. Against it:
- Cn1c(-c2cocn2)nn(CC(O)CN2[C@@H]3CC[C@H]2C[C@@H](OCc2ccccc2CF)C3)c1=O (stereo partly drawn) [Example 55, (Endo)-2-{3-[3-(2-fluoromethylbenzyloxy)-8-azabicyclo[3.2.1]oct-8-yl]-2-hydroxy-propyl}-4-methyl-5-oxazol-4-yl-2,4-dihydro[1,2,4]triazol-3-one] — 3.2-fold higher, 12 µM
- Cc1nn(C[C@@H](F)CN2[C@@H]3CC[C@H]2C[C@@H](OCc2ccc(F)cc2)C3)c(=O)n1-c1ccn(C)n1 [Example 24, (Endo)-2-{(S)-2-fluoro-3-[3-(4-fluorobenzyloxy)-8-azabicyclo[3.2.1]oct-8-yl]propyl}-5-methyl-4-(1-methyl-1H-pyrazol-3-yl)-2,4-dihydro[1,2,4]triazol-3-one oxalate] — the same, 3.7 µM
- CCc1ccccc1COC1CC2CCC(C1)N2C[C@H](O)Cn1nc(C)n(CC)c1=O (stereo partly drawn) [Example 31, (Endo)-4-ethyl-2-{(S)-3-[3-(2-ethylbenzyloxy)-8-azabicyclo[3.2.1]oct-8-yl]-2-hydroxypropyl}-5-methyl-2,4-dihydro[1,2,4]triazol-3-one] — 3.7-fold lower, 1 µM
- CCn1c(C)nc(=O)n(CCCN2[C@@H]3CC[C@H]2C[C@@H](OCc2c(F)cccc2-c2ccccc2)C3)c1=O [Example 91, (Endo)-1-ethyl-3-{3-[3-(3-fluorobiphenyl-2-ylmethoxy)-8-azabicyclo[3.2.1]oct-8-yl]propyl}-6-methyl-1H-[1,3,5]triazine-2,4-dione oxalate] — 22-fold lower, 0.17 µM
- Cc1nn2c(=O)n(C[C@H](F)CN3[C@@H]4CC[C@H]3C[C@@H](OCc3cccc(F)c3)C4)c(=O)nc2n1C [Example 101, (Endo)-6-{(R)-2-fluoro-3-[3-(3-fluorobenzyloxy)-8-azabicyclo[3.2.1]oct-8-yl]propyl}-2,3-dimethyl-3H-[1,2,4]triazole[1,5-a][1,3,5]triazine-5,7-dione] — within 1.5-fold, 2.7 µM
- CCn1cnn(C[C@@H](O)CN2[C@@H]3CC[C@H]2C[C@@H](OCc2c(C)cccc2F)C3)c1=O [Example 35, (Endo)-4-ethyl-2-{(S)-3-[3-(2-fluoro-6-methylbenzyloxy)-8-azabicyclo[3.2.1]oct-8-yl]-2-hydroxypropyl}-2,4-dihydro[1,2,4]triazol-3-one] — 3.8-fold higher, 14 µM
- Cc1nc(=O)n(C[C@@H](F)CN2[C@@H]3CC[C@H]2C[C@@H](OCc2cccc(F)c2)C3)c(=O)n1C [Example 13, (Endo)-3-{(S)-2-fluoro-3-[3-(3-fluorobenzyloxy)-8-azabicyclo[3.2.1]oct-8-yl]propyl}-1,6-dimethyl-1H-[1,3,5]triazine-2,4-dione oxalate] — 2.7-fold higher, 10 µM
- Cc1nn2c(=O)n(C[C@H](F)CN3[C@@H]4CC[C@H]3C[C@@H](OCc3ccc(F)c(F)c3)C4)c(=O)nc2n1C [Example 102, (Endo)-6-{(R)-3-[3-(3,4-di-fluorobenzyloxy)-8-azabicyclo[3.2.1]oct-8-yl]-2-fluoropropyl}-2,3-dimethyl-3H-[1,2,4]triazole[1,5-a][1,3,5]triazine-5,7-dione] — within 1.5-fold, 2.8 µM
- Cc1nn(C[C@H](F)CN2C3CCC2CC(OCc2cccs2)C3)c(=O)n1C (stereo partly drawn) [Example 7, (Endo)-2-{(R)-2-fluoro-3-[3-(thiophen-2-ylmethoxy)-8-azabicyclo[3.2.1]oct-8-yl]propyl}-4,5-dimethyl-2,4-dihydro[1,2,4]triazol-3-one] — within 1.5-fold, 4.3 µM
- Cc1nc2c(c(=O)n1CCN1[C@@H]3CC[C@H]1C[C@@H](OCc1ccccc1F)C3)CCCC2 [Example 180, (Endo)-3-{2-[3-(2-fluorobenzyloxy)-8-azabicyclo[3.2.1]oct-8-yl]ethyl}-2-methyl-5,6,7,8-tetrahydro-3H-quinazolin-4-one oxalate] — within 1.5-fold, 4.8 µM
- O=c1nc2n(c(=O)n1C[C@H](F)CN1[C@@H]3CC[C@H]1C[C@@H](OCc1ccc(F)cc1)C3)CCC2 [Example 128, (Endo)-3-{(R)-2-fluoro-3-[3-(4-fluorobenzyloxy)-8-azabicyclo[3.2.1]oct-8-yl]propyl}-7,8-dihydro-6H-pyrrolo[1,2-a][1,3,5]triazine-2,4-dione oxalate] — the same, 3.7 µM
- Cn1c(=O)c2c(ncn2CCCN2[C@@H]3CC[C@H]2C[C@@H](OCc2ccccc2F)C3)n(C)c1=O [Example 182, (Endo)-7-{3-[3-(2-fluorobenzyloxy)-8-azabicyclo[3.2.1]oct-8-yl]propyl}-1,3-dimethyl-3,7-dihydro-purine-2,6-dione] — 1.8-fold higher, 6.7 µM
- Cc1c(C)n(C)c(=O)n(CCCN2[C@@H]3CC[C@H]2C[C@@H](OCc2ccccc2F)C3)c1=O [Example 189, (Endo)-3-{3-[3-(2-fluorobenzyloxy)-8-azabicyclo[3.2.1]oct-8-yl]propyl}-1,5,6-trimethyl-1H-pyrimidine-2,4-dione oxalate] — within 1.5-fold, 3.8 µM
- Cc1nc(=O)n(C[C@H](F)CN2[C@@H]3CC[C@H]2C[C@@H](OCc2cccc(F)c2)C3)c(=O)n1C [Example 15, (Endo)-3-{(R)-2-fluoro-3-[3-(3-fluorobenzyloxy)-8-azabicyclo[3.2.1]oct-8-yl]propyl}-1,6-dimethyl-1H-[1,3,5]triazine-2,4-dione oxalate] — 1.5-fold lower, 2.4 µM
- O=c1n(CC[C@H](O)CN2[C@@H]3CC[C@H]2C[C@@H](OCc2ccccc2F)C3)nc2ccccn12 [Example 155, (Endo)-2-{(S)-4-[3-(2-fluorobenzyloxy)-8-azabicyclo[3.2.1]oct-8-yl]-3-hydroxybutyl}-2H-[1,2,4]triazolo[4,3-a]pyridin-3-one] — 2.8-fold lower, 1.3 µM
- Cc1nn(C[C@H](O)CN2[C@@H]3CC[C@H]2C[C@@H](OCc2ccc(F)cc2)C3)c(=O)n1-c1cnn(C)c1 [Example 34, (Endo)-2-{(R)-3-[3-(4-fluorobenzyloxy)-8-azabicyclo[3.2.1]oct-8-yl]-2-hydroxypropyl}-5-methyl-4-(1-methyl-1H-pyrazol-4-yl)-2,4-dihydro[1,2,4]triazol-3-one] — 4.3-fold higher, 16 µM
- O=C(CN1[C@@H]2CC[C@H]1C[C@@H](OCc1ccccc1F)C2)Cn1nc2ccccn2c1=O [Example 158, (Endo)-2-{3-[3-(2-fluorobenzyloxy)-8-azabicyclo[3.2.1]oct-8-yl]-2-oxopropyl}-2H-[1,2,4]triazolo[4,3-a]pyridin-3-one] — 4-fold lower, 0.93 µM
- O=c1n(CC(O)CN2[C@@H]3CC[C@H]2C[C@@H](OCc2ccccc2F)C3)nnn1-c1ccccc1 (stereo partly drawn) [Example 190, (Endo)-1-{3-[3-(2-fluorobenzyloxy)-8-azabicyclo[3.2.1]oct-8-yl]-2-hydroxypropyl}-4-phenyl-1,4-dihydro-tetrazol-5-one] — 120-fold lower, 0.03 µM
- Cc1cccc(F)c1CO[C@H]1C[C@H]2CC[C@@H](C1)N2CCCn1c(=O)nc2n(c1=O)CCCCC2 [Example 136, (Endo)-3-{3-[3-(2-fluoro-6-methylbenzyloxy)-8-azabicyclo[3.2.1]oct-8-yl]propyl}-7,8,9,10-tetrahydro-6H-[1,3,5]triazino[1,2-a]azepine-2,4-dione oxalate] — within 1.5-fold, 4.9 µM
- Cc1nn(C[C@H](F)CN2[C@@H]3CC[C@H]2C[C@@H](OCc2cccc(F)c2)C3)c(=O)n1-c1ccn(C)n1 [Example 23, (Endo)-2-{(R)-2-fluoro-3-[3-(3-fluorobenzyloxy)-8-azabicyclo[3.2.1]oct-8-yl]propyl}-5-methyl-4-(1-methyl-1H-pyrazol-3-yl)-2,4-dihydro[1,2,4]triazol-3-one oxalate] — within 1.5-fold, 5.3 µM
- Cc1nn(CC(O)CN2[C@@H]3CC[C@H]2C[C@@H](OCc2ccccc2F)C3)c(=O)n1-c1nccs1 (stereo partly drawn) [Example 48, (Endo)-2-{3-[3-(2-fluorobenzyloxy)-8-azabicyclo[3.2.1]oct-8-yl]-2-hydroxypropyl}-5-methyl-4-thiazol-2-yl-2,4-dihydro[1,2,4]triazol-3-one oxalate] — 18-fold lower, 0.2 µM
- Cn1c(-c2ccccc2)nn(CCCN2[C@@H]3CC[C@H]2C[C@@H](OCc2ccccc2F)C3)c1=O [Example 57, (Endo)-2-{3-[3-(2-fluorobenzyloxy)-8-azabicyclo[3.2.1]oct-8-yl]propyl}-4-methyl-5-phenyl-2,4-dihydro[1,2,4]triazol-3-one oxalate] — 46-fold lower, 0.08 µM
- Cc1cccc(COC2CC3CCC(C2)N3CC(F)Cn2c(=O)nc(C)n(C)c2=O)c1 (stereo not drawn) [Example 21, (Endo)-3-{2-fluoro-3-[3-(3-methylbenzyloxy)-8-azabicyclo[3.2.1]oct-8-yl]-propyl}-1,6-dimethyl-1H-[1,3,5]triazine-2,4-dione oxalate] — within 1.5-fold, 4 µM
- CCn1c(CCCN2[C@@H]3CC[C@H]2C[C@@H](OCc2ccccc2F)C3)nn(C)c1=O [Example 169, (Endo)-4-ethyl-5-{3-[3-(2-fluorobenzyloxy)-8-azabicyclo[3.2.1]oct-8-yl]propyl}-2-methyl-2,4-dihydro[1,2,4]triazol-3-one] — 3.2-fold higher, 12 µM

same assay, conditions: 30 μM; reference for complete inhibition in the equation

In the case of `CNCCCN1c2ccccc2CCc2ccccc21` [desipramine, reference compound], the Nav1.8 channel inhibition is reported as “completely inhibits”.

From patent US20100331310A1, “BICYCLOAMINE DERIVATIVES” (priority 2008, published 2010)
